Measured values: patent US11167007B2, “FOXM1 modulators and uses thereof” (City of Hope, priority 2016, dated 2021)
“Also recorded” adds a separate entry of the source.

What was measured:
AR = biological target: T1, AR (Homo sapiens, UniProt P10275); experiment: FRET-based AR conformation change reporter (CFP-AR-YFP, CARY) in GT1-7 cells; format: cell-based, mouse; parameters: Full length AR with cyan fluorescent protein (CFP) or yellow fluorescent protein (YFP) fused to either end (CARY); expressed in transfected cells
T1 sequence (P10275 1-920): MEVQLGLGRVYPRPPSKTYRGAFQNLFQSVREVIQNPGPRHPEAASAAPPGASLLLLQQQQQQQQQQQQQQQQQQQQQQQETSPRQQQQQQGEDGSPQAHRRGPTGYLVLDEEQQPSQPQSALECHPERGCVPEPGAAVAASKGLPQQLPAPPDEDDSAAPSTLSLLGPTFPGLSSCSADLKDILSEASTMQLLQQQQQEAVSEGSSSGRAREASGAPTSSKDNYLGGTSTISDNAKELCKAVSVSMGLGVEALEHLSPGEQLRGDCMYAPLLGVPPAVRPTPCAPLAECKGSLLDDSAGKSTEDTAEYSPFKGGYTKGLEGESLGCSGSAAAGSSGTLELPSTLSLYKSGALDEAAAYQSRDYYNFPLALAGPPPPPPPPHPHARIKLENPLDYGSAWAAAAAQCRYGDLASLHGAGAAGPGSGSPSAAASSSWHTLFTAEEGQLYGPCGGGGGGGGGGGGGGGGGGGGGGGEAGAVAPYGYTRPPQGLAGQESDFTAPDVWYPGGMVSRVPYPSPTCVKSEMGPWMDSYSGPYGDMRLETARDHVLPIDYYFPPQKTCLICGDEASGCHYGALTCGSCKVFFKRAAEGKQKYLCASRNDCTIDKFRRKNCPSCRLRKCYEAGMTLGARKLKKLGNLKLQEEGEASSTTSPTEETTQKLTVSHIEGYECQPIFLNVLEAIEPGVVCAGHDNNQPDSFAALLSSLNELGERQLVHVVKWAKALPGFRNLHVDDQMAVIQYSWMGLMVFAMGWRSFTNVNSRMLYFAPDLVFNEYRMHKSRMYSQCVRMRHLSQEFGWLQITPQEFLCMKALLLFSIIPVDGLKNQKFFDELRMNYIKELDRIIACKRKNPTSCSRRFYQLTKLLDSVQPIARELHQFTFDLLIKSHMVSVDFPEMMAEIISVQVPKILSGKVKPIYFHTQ
Experimental: Creation of stable C-AR-Y reporter cell lines. Cell lines listed above were either transfected with a plasmid or a virus containing the CFP-AR-YFP construct preceding an IRES and hygromycin resistance gene and clonal stable cell lines selected. Qualification criteria for the transfected cell lines were described by Jones et al, ACS Chem Biol, 3(7):412-8 (2008).
Screen for AR-modulators. Screening was performed essentially as described by Jones et al, ACS Chem Biol, 3(7):412-8 (2008). Briefly, C-AR-Y reporter GTI-7 were transferred to 96 well plates and treated with library compounds for 24 hours. […] The compounds to be tested were from the NCI/DTP Open Chemical Repository's Approved Oncology Drugs Set II, Diversity Set II and Mechanistic Set. […] After 24 hours, medium was aspirated and FRET was measured as previously described using a monochromator-based fluorescence plate reader (M1000, Tecan, Inc.). Jones et al, ACS Chem Biol, 3(7):412-8 (2008). […]
In order to identify potential cell-type selective AR modulators, the FRET-based assay of AR conformation change was utilized. […] This produces an accurate and quantifiable read-out of AR activity. […] Candidate hits were then further evaluated by dose response. […] In addition to FRET, AR transcriptional activity was also assessed in several cell lines by transfecting cells with a luciferase reporter driven by the human PSA promoter. […]

FOXM1 = experiment: Western blot of FOXM1 levels in GT1-7 CARY cells; format: cell-based, murine; settings: relative to p84 loading control, FIG. 3C
Source text: Western Blot. Cell lysates was separated on a 6% SDS page gel and transferred to a nitrocellulose membrane. The membrane was blocked for one hour in 5% skim milk dissolved in TBS-T and probed with the following antibodies ([…]): FoxM1 (rabbit, GeneTex), AR: 441 (mouse, Santa Cruz Biotechnology), β-catenin (rabbit 9562, Cell Signaling Technology), p84 (mouse, GeneTex) and actin (mouse, Santa Cruz Biotechnology). Horse radish peroxidase linked secondary antibodies were used along with ECL reagents for visualization. Western blots were quantified using Quantity One analysis software (BioRad).
It has been previously reported that thiostrepton causes decreased levels of FOXM1. Hegde et al, Nat Chem, 3(9):725-31 (2011); Gartel, Front Oncol, 3:150 (2013). […] The nuclear association between FOXM1 and β-catenin increases the transcriptional activity of both factors. Zhang et al, Cancer Cell, 20(4):427-42 (2011). β-catenin is a key AR coactivator in a variety of cells. Yang, J Biol Chem, 277(13):11336-44 (2002); Truica et al, Cancer Res, 60(17):4709-13 (2000). The inventors believed that thiostrepton could inhibit AR activity by limiting access to nuclear β-catenin via FOXM1 depletion. […] As expected, control actin protein was observed primarily in cytoplasmic fraction.

C=C(NC(=O)C(=C)NC(=O)c1csc(C2=N[C@@H]3c4csc(n4)[C@H]4NC(=O)c5csc(n5)[C@H]([C@](C)(O)[C@@H](C)O)NC(=O)[C@H]5CSC(=N5)/C(=C/C)NC(=O)[C@H]([C@@H](C)O)NC(=O)c5csc(n5)[C@]3(CC2)NC(=O)[C@H](C)NC(=O)C(=C)NC(=O)C(=C)NC(=O)[C@H](C(C)C)N[C@@H]2C=Cc3c([C@H](C)O)cc(nc3[C@H]2O)C(=O)O[C@@H]4C)n1)C(N)=O [NSC285116, siomycin A]
inhibition of DHT-induced AR conformation change (AR; dose response, GT1-7 cells, FIG. 1B): dose dependent inhibition | AR inhibitor (antagonist) activity in words (AR; neuronal GT1-7 cells, FRET or luciferase): greatest potency; also recorded: demonstrated antagonist activity

C=C(NC(=O)C(=C)NC(=O)c1csc(C2=N[C@@H]3c4csc(n4)[C@H]4NC(=O)c5csc(n5)[C@H]([C@](C)(O)[C@@H](C)O)NC(=O)[C@H]5CSC(=N5)/C(=C/C)NC(=O)[C@H]([C@@H](C)O)NC(=O)c5csc(n5)[C@]3(CC2)NC(=O)[C@H](C)NC(=O)C(=C)NC(=O)[C@H](C)NC(=O)[C@H]([C@@H](C)CC)N[C@@H]2C=Cc3c([C@H](C)O)cc(nc3[C@H]2O)C(=O)O[C@@H]4C)n1)C(N)=O [thiostrepton]
FOXM1 levels (Western blot) (FOXM1): slightly decreased
